Patent US11214594B2, “Antimicrobial peptide having synergistic antibacterial effect with antibiotics on multidrug resistant bacteria, and use thereof” (priority 2016, dated 2022)
Values after ≈ are worked out from the molar mass of the structure shown.

Legend:
MDRST 8007 = assay: Minimal inhibitory concentration (MIC), single agent; assay type: cell-based, Salmonella typhimurium; conditions: agent alone
Protocol: (§1) For the antibacterial activity, a minimal inhibitory concentration (MIC) of a peptide in which fungus bodies were not split in an MH medium with sufficient nutrients was measured.
(§2) Specifically, the strains described in the following [Table 2] were purchased and diluted with an MH medium such that the number of bacteria was 2×10^6 colony-forming units (CFUs), 100 μl of each of the diluted strains was aliquoted into a 96-well microtiter plate, and then 100 μl of a peptide solution diluted with the MH medium (solution diluted stepwise at 2: 1) was added to each well.

MDRPA 2003 = assay type: cell-based, Pseudomonas aeruginosa; conditions: MDRPA 2003; agent alone
Protocol: as §1, §2

MDRPA 2002 = assay type: cell-based, Pseudomonas aeruginosa; conditions: MDRPA 2002; agent alone
Protocol: as §1, §2

MRSA 3114 = assay type: cell-based, Staphylococcus aureus; conditions: MRSA 3114; agent alone
Protocol: as §1, §2

MRSA 3126 = assay type: cell-based, Staphylococcus aureus; conditions: MRSA 3126; agent alone
Protocol: as §1, §2

MDRAB 12035 = assay: microbe, parasite or virus in culture; assay type: cell-based, Acinetobacter baumannii; conditions: MDRAB 12035; agent alone
Protocol: as §1, §2

A. baumannii = assay: microbe, parasite or virus in culture; assay type: cell-based, Acinetobacter baumannii; conditions: A. baumannii; agent alone
Protocol: as §1, §2

MDREC 1238 = assay type: cell-based, Escherichia coli; conditions: MDREC 1238; agent alone
Protocol: as §1, §2

MDRAB 12036 = assay type: cell-based, Acinetobacter baumannii; conditions: MDRAB 12036; agent alone
Protocol: as §1, §2

MDRST 8009 = assay type: cell-based, Salmonella typhimurium; conditions: agent alone
Protocol: as §1, §2

S. epidermidis = assay: microbe, parasite or virus in culture; assay type: cell-based, Staphylococcus epidermidis; conditions: S. epidermidis; agent alone
Protocol: as §1, §2

MDREC 1229 = assay: microbe, parasite or virus in culture; assay type: cell-based, Escherichia coli; conditions: MDREC 1229; agent alone
Protocol: as §1, §2

CC[C@H](C)[C@H](NC(=O)CN)C(=O)NCC(=O)N[C@@H](C)C(=O)N[C@H](C(=O)N[C@@H](CC(C)C)C(=O)N[C@@H](CCCCN)C(=O)N[C@H](C(=O)N[C@@H](CC(C)C)C(=O)N[C@H](C(=O)N[C@H](C(=O)NCC(=O)N[C@@H](CC(C)C)C(=O)N1CCC[C@H]1C(=O)N[C@@H](C)C(=O)N[C@@H](CC(C)C)C(=O)N[C@H](C(=O)N[C@@H](CO)C(=O)N[C@@H](Cc1c[nH]c2ccccc12)C(=O)N[C@H](C(=O)N[C@@H](CCCCN)C(=O)N[C@@H](CCCNC(=N)N)C(=O)N[C@@H](CCCCN)C(=O)N[C@@H](CCCNC(=N)N)C(=O)N[C@@H](CCC(N)=O)C(=O)N[C@@H](CCC(N)=O)C(N)=O)[C@@H](C)CC)[C@@H](C)CC)[C@@H](C)O)[C@@H](C)O)C(C)C)C(C)C [Melittin, reference compound]
Minimal inhibitory concentration MIC (MDRST 8007): 32 mg/L (≈ 11.2 µM)
Minimal inhibitory concentration MIC (MDRPA 2003): 16 mg/L (≈ 5.62 µM)
Minimal inhibitory concentration MIC (MDRPA 2002): 16 mg/L (≈ 5.62 µM)
Minimal inhibitory concentration MIC (MRSA 3114): 8 mg/L (≈ 2.81 µM)
Minimal inhibitory concentration MIC (MRSA 3126): 16 mg/L (≈ 5.62 µM)
Minimal inhibitory concentration MIC (MDRAB 12035): 8 mg/L (≈ 2.81 µM)
Minimal inhibitory concentration MIC (A. baumannii): 8 mg/L (≈ 2.81 µM)
Minimal inhibitory concentration MIC (MDREC 1238): 32 mg/L (≈ 11.2 µM)
Minimal inhibitory concentration MIC (MDRAB 12036): 16 mg/L (≈ 5.62 µM)
Minimal inhibitory concentration MIC (MDRST 8009): 32 mg/L (≈ 11.2 µM)
Minimal inhibitory concentration MIC (S. epidermidis): 16 mg/L (≈ 5.62 µM)
Minimal inhibitory concentration MIC (MDREC 1229): 16 mg/L (≈ 5.62 µM)
